The values below come from PubChem BioAssay AID504630 (Southern Research Specialized Biocontainment Screening …, 2011).

This test has as its system human PBMC cytotoxicity, % cell control. Nature of the test: PBMC viability reduction by test compounds – cell-based, human PBMC, set 3, cytotoxicity control for HIV-1 antiviral project, dose response (AID 504630).

In the case of `Cc1c2c(=O)n(-c3nc4ccccc4s3)nc-2cc(O)n1Cc1ccccc1`, the TC50 is 13.2 µM.
